Assay [1] concerns the target T1, recombinant human nectin-4 (Homo sapiens, UniProt Q96NY8).
T1 construct: close to the value determined for the complete extracellular domain of nectin-4 (0.94 nM); purchased R&D Systems 2659-N4
T1 sequence (Q96NY8 32-349 limits assumed): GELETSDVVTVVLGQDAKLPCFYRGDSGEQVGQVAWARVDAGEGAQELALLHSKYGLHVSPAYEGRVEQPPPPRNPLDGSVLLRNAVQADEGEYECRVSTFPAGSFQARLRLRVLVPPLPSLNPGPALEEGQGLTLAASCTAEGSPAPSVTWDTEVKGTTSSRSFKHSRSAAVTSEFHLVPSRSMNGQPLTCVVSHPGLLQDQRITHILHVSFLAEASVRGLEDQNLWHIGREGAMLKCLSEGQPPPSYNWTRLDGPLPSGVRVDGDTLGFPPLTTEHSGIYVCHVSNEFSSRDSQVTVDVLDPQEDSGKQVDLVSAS
Kind of assay: Fluorescence anisotropy (FA) direct binding of fluorescent probes. The following applies: 1 nM probe. The text has this: For characterizing the binding affinity of the bicyclic peptides toward nectin-4, we envisaged a fluorescence anisotropy-based competitive binding assay. Mudd et al. also used such an assay for the development of the bicycle drug conjugate BT8009. Herein, the peptidic scaffold of BT8009 was used as a basis for the required fluorescent nectin-4-ligand (probe) with either 6-TAMRA (1a) or 6-FAM (1b) being attached at the N-terminal Cys residue. […] In this context, the binding of the probe to nectin-4 was started by the addition of nectin-4, followed by continuous fluorescence measurements over 20 min. It is worth noting that a slight initial increase in the FA values could be observed for both probes (FA values at <300 s in Figure S1); however, this putative time-dependent association appeared to be too fast to analyze it. […]
All measurements were conducted at 37 °C over 1200 s (interval of 37 s) using a Cytation 5 multimode microplate reader (BioTek Instruments, Software Gen 5) and black 96-well microplates (BRANDplates with F-bottom wells). […] The FA (r) was calculated by Gen 5 software from the measured parallel and perpendicular fluorescence intensities (I ∥ and I ⊥, respectively) according to eq using a G factor of 0.87 (preset value). r=I∥−G×I⊥/I∥+2G×I⊥ 1 […]

Assay [2] deals with T2, recombinant N-terminal Ig-like V domain of nectin-4 (Homo sapiens, UniProt Q96NY8).
T2 construct: probe 1a to the N-terminal Ig-like V domain of nectin-4 (Acro Biosystems, NE4-H82Ea); purchased Acro Biosystems NE4-H82Ea
T2 sequence (Q96NY8 32-144 limits assumed): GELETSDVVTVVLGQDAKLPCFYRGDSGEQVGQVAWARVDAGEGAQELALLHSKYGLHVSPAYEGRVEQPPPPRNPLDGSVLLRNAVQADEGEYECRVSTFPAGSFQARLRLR
Kind of assay: FA direct binding of probe 1a to Ig-like V domain. The text has this: For direct binding of probe 1a to the N-terminal Ig-like V domain of nectin-4 (Acro Biosystems, NE4-H82Ea), the same procedure as described previously was applied.

Assay [3] has as its system HT-1376 cells. The assay can be described thus: Flow cytometry with fluorescent probe. It is filed as cell-based, human. The note with it: 1 µM probe, on ice 1 h; 5637 cells as negative. As for the experimental part:
For flow cytometry analysis, HT-1376 and 5637 cells were rinsed with PBS three times and dissociated from a flask by using 50 mM EDTA and a cell scraper. Aliquots of the cell suspension containing 1 × 10^6 cells were pelleted at 300×g for 7 min, and one pellet of each cell line was dissolved in fresh PBS + 3% BSA containing 1 μM of probe 1b. As a negative control, one HT-1376 pellet was dissolved only in PBS + 3% BSA. The cells were incubated on ice for 1 h before they were pelleted again. The staining solution was discarded, and the pellet was washed in 1 mL of PBS + 0.5% BSA + 2 mM EDTA (FACS wash buffer) and centrifuged again. The washing step was repeated a total of three times. After the last wash, the pellets were dissolved in 500 μL of FACS wash buffer and analyzed with an Attune NxT Flow Cytometer (Invitrogen). For the detection, the BL1 laser with an excitation of 488 nm and an emission filter of 530/30 nm set to a Voltage of 270 was used. The forward scatter was set to a voltage of 80 or 120, and the sideward scatter was set to 320 or 370 for HT-1376 or 5637 cells, respectively. A sample of 50 μL was analyzed at a speed of 100 μL/min, leading to a total of 35410 and 34992 analyzed events (singlets) for HT-1376 and 5637 cells, respectively.

The target of assay [4] is T1, recombinant human nectin-4. Kind of assay: FA-based competitive binding assay with probe 1a.
Assay [5] has as its system HT-1376 cells. The assay can be described thus: Saturation binding assay on intact cells. It counts as cell-based, human. The following applies: ^68Ga-labeled ligand, intact HT-1376 cells, ±SD.
Assay [6] addresses nectin-4. Also on record: method as in Duan et al. The note with it: SPR, buffer pH 4.0; ref Duan et al.; read-out: binding affinity; cited from earlier work.

Numbered stars: 1 amine (or outer) side, 2 acyl side, 3 side chain; on linkers, the order of the positions; unused ones are H or OH. Bridge positions count the residues as written; N and C are the ends. Square brackets hold non-standard residues; d marks the D form. Peptide text beside a SMILES is read from it. * marks the point of attachment. DOTA = O=C(O)CN1CCN(CC(=O)O)CCN(CC(=O)*)CCN(CC(=O)O)CC1; TATA = O=C(CC[*:1])N1CN(C(=O)CC[*:2])CN(C(=O)CC[*:3])C1; 2Nal = N[C@@H](Cc1ccc2ccccc2c1)C(=O)O; Hyp = O=C(O)[C@@H]1C[C@@H](O)CN1

On to `CSCC[C@@H]1NC(=O)[C@@H]2CSCCC(=O)N3CN(CN(C3)C(=O)CCSC[C@H](NC(=O)c3ccc(C(=O)O)c(-c4c5ccc(=[N+](C)C)cc-5oc5cc(N(C)C)ccc45)c3)C(=O)N3CCC[C@H]3C(=O)N[C@@H](Cc3cccc4ccccc34)C(=O)N[C@H](CC(=O)O)C(=O)N2)C(=O)CCSC[C@@H](C(N)=O)NC(=O)[C@H](Cc2c[nH]c3ccccc23)NC(=O)[C@@H]2C[C@@H](O)CN2C(=O)[C@@H]2CCCN2C(=O)[C@H]([C@@H](C)O)NC(=O)[C@H](CO)NC(=O)[C@H](Cc2c[nH]c3ccccc23)NC(=O)[C@H](CC(=O)O)NC(=O)[C@H](CCCCNC(=N)N)NC1=O` [1a], for which the “dynamic range (ΔFA = mA of bound probe – mA of free probe)” value in assay [1] was 100 (±3) mA. Moreover, the Kd in assay [2] was found to be 1.3 nM.

For `CSCC[C@@H]1NC(=O)[C@@H]2CSCCC(=O)N3CN(CN(C3)C(=O)CCSC[C@H](NC(=O)c3ccc(C(=O)O)c(-c4c5ccc(=O)cc-5oc5cc(O)ccc45)c3)C(=O)N3CCC[C@H]3C(=O)N[C@@H](Cc3cccc4ccccc34)C(=O)N[C@H](CC(=O)O)C(=O)N2)C(=O)CCSC[C@@H](C(N)=O)NC(=O)[C@H](Cc2c[nH]c3ccccc23)NC(=O)[C@@H]2C[C@@H](O)CN2C(=O)[C@@H]2CCCN2C(=O)[C@H]([C@@H](C)O)NC(=O)[C@H](CO)NC(=O)[C@H](Cc2c[nH]c3ccccc23)NC(=O)[C@H](CC(=O)O)NC(=O)[C@H](CCCCNC(=N)N)NC1=O` [1b], in assay [1], the “dynamic range (ΔFA = mA of bound probe – mA of free probe)” value is reported as 86 (±7) mA. Also, the “binding of probe to cells (FACS)” value in assay [3] was “Nectin-4-specific binding”.

`CSCC[C@@H]1NC(=O)[C@@H]2CSCCC(=O)N3CN(CN(C3)C(=O)CCSC[C@H](NC(=O)CN3CCN(CC(=O)O)CCN(CC(=O)O)CCN(CC(=O)O)CC3)C(=O)N3CCC[C@H]3C(=O)N[C@@H](Cc3ccc4ccccc4c3)C(=O)N[C@H](CC(=O)O)C(=O)N2)C(=O)CCSC[C@@H](C(=O)O)NC(=O)[C@H](Cc2c[nH]c3ccccc23)NC(=O)[C@@H]2C[C@@H](O)CN2C(=O)[C@@H]2CCCN2C(=O)[C@H]([C@@H](C)O)NC(=O)[C@H](CO)NC(=O)[C@H](Cc2c[nH]c3ccccc23)NC(=O)[C@H](CC(=O)O)NC(=O)[C@H](CCCNC(=N)N)NC1=O` [8d, reference compound] ({DOTA}-CP[2Nal][dD]CMRDWSTP[Hyp]WC-OH; linker 1-5-15 via TATA): in assay [4] (FA K d ratio), the “factor less potent than DOTA conjugate 1f” value is on record as 26 fold. Moreover, the Hill coefficient n in assay [4] (competitive binding curve, variable slope) is on record as 2.53. In addition, the Kd in assay [5] (60 min, PBS wash, apparent) is 222 nM; in assay [6], 23.7 nM. In addition, the “B max (fmol/mg)” value in assay [5] is reported as 291 (±77.9) fmol/mg.

(Values after paper PMC12557367, ““Precision on Two Wheels”–Structural Refinement of ^64Cu- and ^68Ga-Labeled Bicyclic Peptides Targeting Nectin‑4 for Improved Tumor Imaging: From Preclinical Development to First-in-Human Application” (Journal of Medicinal Chemistry, 2025).)
